Experimental data from patent EP3417074B1, “ANALYTICAL METHODS AND ARRAYS FOR USE IN THE SAME” (SenzaGen AB, priority 2016, dated 2017).
Several values for one entry are separate records, joined by “and”; a condition that tells them apart may be missing. Equal values may be shown once. Entries after “also recorded” stand apart in the source; their conditions may differ. Where a name gives a salt, the structure may show the parent alone. Read-outs that look alike come from different tables or passages of the source.

Assays:
[1] = cited from earlier work; for binary class (HP*): Table 1, based on [41] where available, HP 1-4=S, 5-6=NS, otherwise according to CLP
[2] = tested on: human skin; settings: cited from earlier work; for Human potency [41]: Table 6, test set
[3] = tested on: MUTZ-3 cells; test: GARD binary classification (SVM on GARD prediction signature, 200 transcripts); settings: for SVM DV: Table 8, average SVM decision value derived from triplicates; for GARD binary prediction: Table 1, sensitizer if median calibrated SVM DV of replicates > 0
[4] = tested on: MUTZ-3 cells; test: Cytotoxicity / viability by flow cytometry (propidium iodide); settings: Table 1, 24 hours exposure
[5] = tested on: MUTZ-3 cells; test: GARD random forest model for prediction of CLP categories (52 transcripts, Example A); settings: for predicted CLP: Suppl. Table 1, separate replicates in the test set; for GARD predicted CLP: Table 6, independent test set, majority voting across replicates; for CLP category predicted by the random forest model: test set, majority votes

| SVM DV [3] | Compound | binary class ([1]; Table 4) | HP ([2]; Table 4) | cytotox [4] | other results |
| --- | --- | --- | --- | --- | --- |
|  | O=C(O)c1ccc(O)cc1 [p-hydroxybenzoic acid] | non-sens |  |  |  |
| -1,53 | COC(=O)c1ccccc1O [methyl salicylate] | non-sens | 5 |  | Human potency ([2]; Table 8): 5 |
|  | CC(C)=CCCC(C)CCO (stereo not drawn) [citronellol] | sens | 5 | no | GARD binary prediction [3]: S |
|  | N#CCCC(Br)(C#N)CBr (stereo not drawn) [methyldibromo glutaronitrile] | sens | 2 |  |  |
| -1,18 | CC(O)CO (stereo not drawn) [Propylene glycol] |  |  |  | Human potency ([2]; Table 8): 5 |
|  | CCCCC/C(=C/c1ccccc1)CO [amylcinnamyl alcohol] |  |  | yes | HP [2]: 4; GARD binary prediction [3]: S |
|  | CCCOC(=O)c1cc(O)c(O)c(O)c1 [propyl gallate] | sens | 2 | yes | Human potency [41] [2]: 2; binary class (HP*) [1]: S; GARD binary prediction [3]: S; predicted CLP [5]: 1A; GARD predicted CLP [5]: 1A |
|  | O=[N+]([O-])c1ccc(CBr)cc1 [4-nitrobenzylbromide] | sens |  |  |  |
|  | CN(C)CCCN1c2ccccc2Sc2ccc(Cl)cc21 [chlorpromazine] | sens | 3 | yes | binary class (HP*) [1]: S; GARD binary prediction [3]: S |
|  | xylene |  | 6 |  | Human potency [41] [2]: 6 |
| 1,03 | Oc1cccc(O)c1 [resorcinol] |  | 4 |  | HP ([2]; Table 2, benchmark chemicals): 4; Human potency ([2]; Table 8): 4 |
|  | C=CC(C)(O)CCC=C(C)C (stereo not drawn) [linalool] | sens | 4 | no | Human potency [41] [2]: 4; binary class (HP*) [1]: S; predicted CLP [5]: no cat and 1B (2×); GARD predicted CLP [5]: 1B |
|  | Oc1ccc(O)cc1 [hydroquinone] | sens | 3 |  |  |
| -2,05 | OCC(O)CO [glycerol] |  | 6 |  | Human potency ([2]; Table 8): 6 |
|  | CCCCCC#CC(=O)OC [methyl heptine carbonate] | sens | 2 | yes | binary class (HP*) [1]: S; GARD binary prediction [3]: S |
|  | CC(C)C1=CC2=CC[C@@H]3[C@](C)(CCC[C@@]3(C)C(=O)O)[C@H]2CC1 [abietic acid] | sens | 3 | no | binary class (HP*) [1]: S; GARD binary prediction [3]: S |
|  | O=CCc1ccccc1 [phenyl acetaldehyde] | sens |  |  |  |
| 2,94 | OCC=Cc1ccccc1 [cinnamyl alcohol] | sens | 3 |  | Human potency ([2]; Table 8): 3 |
|  | Oc1c(Cl)c(Cl)c(Cl)c(Cl)c1Cl [pentachlorophenol] | sens |  | no | HP [2]: 5 |
|  | CCCCCCOC(=O)c1ccccc1O [hexyl salicylate] | sens |  | yes | HP [2]: 4; binary class (HP*) [1]: S; GARD binary prediction [3]: S |
|  | O=[N+]([O-])c1ccc(F)c([N+](=O)[O-])c1 [2,4-Dinitrofluorobenzene] | sens |  |  | binary class (HP*) [1]: S; GARD binary prediction [3]: S |
|  | CC(CC=O)CCCC(C)(C)O (stereo not drawn) [hydroxycitronellal] | sens | 4 |  |  |
|  | O=c1c(-c2ccccc2)c1-c1ccccc1 [diphenylcyclopropenone] | sens | 1 |  |  |
|  | CCOC(=O)c1ccc(N)cc1 [benzocaine] | sens | 4 | no | binary class (HP*) [1]: S; binary classification according to the established GARD model ([3]; sensitizing chemicals close to the cut-off defined by benchmark samples): misclassified |
| 1,76 | CC(C)=CCC/C(C)=C/CO [geraniol] |  |  |  |  |
|  | O=C(OCc1ccccc1)c1ccccc1 [benzyl benzoate] |  |  | yes | GARD binary prediction [3]: S; predicted CLP [5]: 1B; GARD predicted CLP [5]: 1B |

| SVM DV [3] | Compound | binary class ([1]; Table 4) | HP ([2]; Table 4) | cytotox [4] | other results |
| --- | --- | --- | --- | --- | --- |
|  | O=C(O)CC(O)(CC(=O)O)C(=O)O [citric acid] |  |  | no |  |
| 1,91 | CC=Cc1ccc(O)c(OC)c1 [isoeugenol] | sens | 2 |  | Human potency ([2]; Table 8): 2 |
|  | O=CC=Cc1ccccc1 [cinnamaldehyde] |  |  |  | HP [2]: 2 |
|  | OCCNCCO [diethanolamine] | sens |  | no | HP [2]: 5 |
|  | Cc1cccc(O)c1O [3-Methylcatechol] | sens |  | yes | binary class (HP*) [1]: S; GARD binary prediction [3]: S |
| 1,24 | CCCCCCC(C=O)=Cc1ccccc1 [hexylcinnamic aldehyde] | sens | 5 |  | HP ([2]; Table 2, benchmark chemicals): 5; Human potency ([2]; Table 8): 5; binary class ([1]; Table 2, benchmark chemicals): sens |
|  | O=C(O)C(O)C(O)C(=O)O (stereo not drawn) [tartaric acid] |  |  | no |  |
|  | CCOC(=O)/C=C\C(=O)OCC [diethyl maleate] | sens | 2 |  | human potency category ([2]; Basketter et al. [41]): 2; Human potency [41] [2]: 2; predicted CLP [5]: 1A; GARD predicted CLP [5]: 1A; CLP category predicted by the random forest model [5]: 1A |
|  | Clc1nc(Cl)nc(Cl)n1 [cyanuric chloride] | sens |  | yes | binary class (HP*) [1]: S; predicted CLP [5]: 1B and no cat (2×); GARD predicted CLP [5]: no cat; CLP category predicted by the random forest model [5]: no cat; also recorded: no category |
|  | CCCCCC [hexane] | non-sens | 6 |  |  |
|  | OCc1ccccc1 [benzyl alcohol] | non-sens |  | no |  |
| 2,52 | Sc1nc2ccccc2s1 [2-mercaptobenzothiazole] | sens | 3 |  | Human potency ([2]; Table 8): 3 |
| -1,19 | CCCCCCCC(=O)O [octanoic acid] | non-sens |  |  | Human potency ([2]; Table 8): 6; HP [2]: 6 |
|  | O=C(Oc1ccccc1)c1ccccc1 [phenyl benzoate] | sens | 3 |  |  |
| -1,39 | CCCCCCCC/C=C\CCCCCCCC(=O)OCCOCC(OCCO)C1OCC(OCCO)C1OCCO (stereo not drawn) [Tween 80] | non-sens | 6 |  | Human potency ([2]; Table 8): 6 |
| -1,04 | Nc1ccc(C(=O)O)cc1 [PABA] |  |  |  | Human potency [2]: 5 |
|  | CC(C)=CCCC(C)=CC=O [citral] | sens |  | yes | HP [2]: 3; binary class (HP*) [1]: S; GARD binary prediction [3]: S |
| 1,12 | NCCN [ethylenediamine] |  |  |  |  |
| -1,37 | CC(C)O [isopropanol] | non-sens | 5 |  | Human potency ([2]; Table 8): 5 |
|  | chloroanilin | sens |  |  |  |
|  | CCCCBr [1-bromobutane] | non-sens |  |  | predicted CLP [5]: no cat; GARD predicted CLP [5]: no cat |
| -1,41 | O=C(O)c1ccccc1O [salicylic acid] |  |  |  | HP [2]: 6; Human potency [2]: 6 |
|  | CCCCCCCCCCCCCC(=O)OC(C)C [isopropyl myristate] | sens | 5 | no |  |
|  | CN(C)C(=S)SSC(=S)N(C)C [tetramethylthiuram disulfide] |  |  |  | HP [2]: 3 |
|  | CCCCCCCCCCCCOC(=O)c1cc(O)c(O)c(O)c1 [lauryl gallate] | sens | 2 |  |  |
| -2,38 | CC(O)C(=O)O (stereo not drawn) [lactic acid] |  |  |  | HP [2]: 6; Human potency [2]: 6 |

| Compound | SVM DV [3] | binary class ([1]; Table 4) | HP ([2]; Table 4) | cytotox [4] | other results |
| --- | --- | --- | --- | --- | --- |
| O=CC=O [glyoxal] | 1,08 |  |  |  | HP [2]: 2; Human potency [2]: 2 |
| Nc1ccc(N)cc1 [p-phenylenediamine] | 5,32 | sens |  |  | Human potency ([2]; Table 8): 1; HP [2]: 1; binary class ([1]; Table 2, benchmark chemicals): sens |
| C=CC(=O)OCCO [2-hydroxyethyl acrylate] | 8,87 |  |  |  |  |
| CCOC(=O)c1ccccc1C(=O)OCC [diethyl phthalate] | -2,15 | non-sens |  |  | Human potency [41] [2]: 6; HP [2]: 6; Human potency [2]: 6; predicted CLP [5]: no cat; GARD predicted CLP [5]: no cat |
| O=[N+]([O-])c1ccc(Cl)c([N+](=O)[O-])c1 [2,4-dinitrochlorobenzene] | 6,31 | sens |  |  | HP [2]: 1; Human potency [2]: 1; binary class ([1]; Table 2, benchmark chemicals): sens |
| O=Cc1ccccc1 [benzaldehyde] | -2,13 |  |  |  |  |
| Clc1ccccc1 [chlorobenzene] | -1,63 |  |  |  | HP [2]: 6; Human potency [2]: 6 |
| Nc1ccccc1O [2-aminophenol] | 5,98 |  |  |  | HP [2]: 2; Human potency [2]: 2 |
| CC1(C)S[C@@H]2[C@H](NC(=O)Cc3ccccc3)C(=O)N2[C@H]1C(=O)O [Penicillin G] | 1,06 |  |  |  | Human potency ([2]; Table 8): 3 |
| [K+].[K+].[O]=[Cr](=[O])([O-])[O][Cr](=[O])(=[O])[O-] [potassium dichromate] | 8,45 | sens | 1 |  | Human potency ([2]; Table 8): 1 |
